For 13 compounds, half-life and IC50 results are on record in patent US10246448B2, “4-hydroxy-2-phenyl-1,3-thiazol-5-yl methanone derivatives as TRPM8 antagonists” (DOMPÉ FARMACEUTICI S.P.A., priority 2015, dated 2019).

Each structure is given as a SMILES string.

A short description of series [1]: Metabolic stability in rat microsomes, Phase I assay. The conditions noted are these: pH 7.4; rat liver microsomes 0.5 mg/ml, compound 1 μM, NADP cofactors mixture, 37° C.; read-out: Metabolic Stability (t1/2, min) Phase1. It is filed as in vitro ADME. The protocol: Compounds 1, 2, 8 and 9 in duplicate were dissolved in DMSO and pre-incubated, at the final concentration of 1 μM, for 10 min at 37° C. in potassium phosphate buffer 50 mM pH 7.4, 3 mM MgCl2, with rat liver microsomes (Xenotech) at the final concentration of 0.5 mg/ml.
After the pre-incubation period, reactions were started by adding the cofactors mixture (NADP, Glc6P, Glc6P-DH in 2% Sodium bicarbonte); samples (50 μl) were taken at time 0, 10, 20, 30 and 60 min added to 150 μl of acetonitrile with Verapamil 0.02 μM as Internal Standard (IS) to stop the reaction. After centrifugation the supernatants were analysed by LC-MS/MS.
A control sample without cofactors was added in order to check the stability of test compounds in the matrix after 60 min. 7-Ethoxycoumarin and propranolol were added as reference standards.
A general note: Liver microsomes are a subcellular fraction often used to study metabolism.

Series [2] is described as follows: Metabolic stability in rat microsomes, Phase II assay. To be noted: pH 7.4; rat liver microsomes 0.5 mg/mL, Alamethicin activated, UDPGA, compound 1 μM, 37° C.; read-out: Metabolic Stability (t1/2, min) Phase2. It is filed as in vitro ADME. As for the experimental part:
Rat liver microsomes (0.5 mg/mL final conc.) were incubated in ice for 15 min in 50 mM potassium phosphate buffer pH 7.4, 3 mM MgCl2 and activated with Alamethicin 50 μg/mg microsomal protein. Samples were transferred at 37° C. and compounds 1, 2, 8 and 9, dissolved in DMSO, were added in duplicate at the final concentration of 1 μM. After 5 min, reaction is started by adding 25 μl of UDPGA (16.15 mg/ml in 0.2% Sodium Bicarbonate). Samples were taken at time 0, 10, 20, 30 and 60 min added to 150 μl of acetonitrile with Verapamil 0.02 uM as Internal Standard (IS) to stop the reaction. After centrifugation the supernatants were analysed by LC-MS/MS. 7-Hydroxycoumarin was added as reference standard.

In series [3] the target is T1, human TRPM8 (Homo sapiens, UniProt Q7Z2W7). Nature of the series: In vitro TRPM8 assay: intracellular calcium levels, Ca2+ sensitive fluorescent dye (FLIPR), agonist Icilin or Cooling Agent 10. To be noted: HEK-293 cells stably expressing human TRPM8. Details: expressed in transfected cells. It is filed as cell-based. The protocol:
The TRPM8 antagonistic activity of all 26 compounds was determined by measuring changes in intracellular calcium levels using a Ca^+2 sensitive fluorescent dye. The experiments were performed using HEK-293 cells stably expressing the human TRPM8. Cells were seeded 10000 cells/well in 384 plates coated by Poly-D-Lysine MATRIX black/clear bottom (Thermo Scientific, Waltham, Mass. USA) in complete medium and grown overnight at 37° C., 5% CO2. 24 h after seeding, cell culture media was removed, cells were washed with Tyrode's assay buffer and then loaded with the fluorescent Ca^+2 indicator Fluo-4 NW dye (Molecular Probes, Life Technologies, Paisley, UK) supplemented with water-soluble Probenecid (Molecular Probes). Dye loaded cell plates were incubated for 1 h at room temperature. The compounds or vehicle were added and the kinetic response was monitored by a fluorimetric imaging plate ([…]; Molecular Devices, Sunnyvale, Calif., USA) over a period of five minutes (300 seconds). A second injection 5 minutes later of the reference agonist Cooling Agent 10 or Icilin at EC80 concentration was performed. The signal of the emitted fluorescence was recorded during additional three minutes. Data were analyzed by Spotfire DecisionSite version 9.1.1. The bioactivity exerted by the compounds or vehicle was expressed as a percent inhibition and IC50 values were then calculated.
A general note: Calcium flux is commonly read through the fluorescence of an indicator in the cells.

Series [4] has as its target T1, human TRPM8. The experiment in a line: In vitro cold stimulation assay.
Method: The TRPM8 antagonisticic activity of all 26 compounds was determined in an in vitro cold stimulation assay.
3-4 days after seeding (˜80% confluent cells), the medium was removed and cells were loaded by a solution of Screen Quest™ Fluo-8 NW dye (ABS Bioquest, Sunnyvale, Calif., USA) in the dark. Dye-loaded cell flasks were incubated for 45 minutes at room temperature in the dark and the Fluo-8 NW solution was then removed and cells were seeded in the 96 Assay Plates (MicroAmp™ Optical 96-Well Reaction Plates; Applied Biosystems, Life technologies) at 100,000 cells/'well (20 μl/well). […] All data point determinations were performed in duplicate before a mean value was calculated, including error bars representing the standard error of the mean.
The mark [5] stands for this setting: agonist Cooling Agent 10 at EC80, read-out: Ca2+ (IC50 μM) Cool 10.
Where [6] appears, read: agonist Icilin at EC80, read-out: Ca2+ (IC50 μM) Icilin.

T1 sequence (Q7Z2W7 whole entry): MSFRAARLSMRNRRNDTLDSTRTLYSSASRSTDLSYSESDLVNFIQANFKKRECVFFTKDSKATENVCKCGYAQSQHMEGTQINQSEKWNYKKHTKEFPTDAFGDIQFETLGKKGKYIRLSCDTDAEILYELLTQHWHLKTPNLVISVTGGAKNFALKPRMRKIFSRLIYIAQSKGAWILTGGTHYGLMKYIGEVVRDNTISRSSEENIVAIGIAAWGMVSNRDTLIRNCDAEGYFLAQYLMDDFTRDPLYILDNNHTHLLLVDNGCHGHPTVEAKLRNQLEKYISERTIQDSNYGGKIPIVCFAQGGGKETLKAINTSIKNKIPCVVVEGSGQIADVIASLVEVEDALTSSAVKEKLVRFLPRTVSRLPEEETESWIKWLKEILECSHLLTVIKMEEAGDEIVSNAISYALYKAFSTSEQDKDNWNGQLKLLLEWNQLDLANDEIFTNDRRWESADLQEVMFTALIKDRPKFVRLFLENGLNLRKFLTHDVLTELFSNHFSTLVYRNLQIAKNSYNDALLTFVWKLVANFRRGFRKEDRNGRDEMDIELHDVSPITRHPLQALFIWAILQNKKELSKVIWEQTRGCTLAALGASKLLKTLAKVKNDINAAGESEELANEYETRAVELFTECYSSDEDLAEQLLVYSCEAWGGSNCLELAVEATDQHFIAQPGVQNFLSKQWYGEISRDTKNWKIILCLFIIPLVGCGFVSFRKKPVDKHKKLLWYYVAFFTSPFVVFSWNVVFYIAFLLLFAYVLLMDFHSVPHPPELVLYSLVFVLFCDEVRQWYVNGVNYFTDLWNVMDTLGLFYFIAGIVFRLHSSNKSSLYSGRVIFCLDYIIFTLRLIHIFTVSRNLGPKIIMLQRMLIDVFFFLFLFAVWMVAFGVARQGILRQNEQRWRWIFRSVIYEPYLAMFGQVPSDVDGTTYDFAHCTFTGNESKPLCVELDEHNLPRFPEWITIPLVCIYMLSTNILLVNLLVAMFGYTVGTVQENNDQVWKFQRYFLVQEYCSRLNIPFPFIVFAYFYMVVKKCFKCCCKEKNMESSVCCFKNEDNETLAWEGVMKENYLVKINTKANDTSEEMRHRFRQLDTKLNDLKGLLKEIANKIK

As to `O=C(c1cccs1)c1sc(-c2cccc(F)c2)nc1O` [Example 20, [2-(3-fluorophenyl)-4-hydroxy-1,3-thiazol-5-yl](thiophen-2-yl)methanone], the half-life at 1 μM in series [1] turned out to be 68 min; in series [2] it was 59 min. Further, the IC50 turned out to be 0.96 µM on human TRPM8 [3] (setting [5]), 1.11 µM at human TRPM8 [3] (setting [6]) and 1380 nM at human TRPM8 [4].

As to `O=C(c1sc(-c2cccc(F)c2)nc1O)n1cccc1` [Example 21, [2-(3-fluorophenyl)-4-hydroxy-1,3-thiazol-5-yl](1H-pyrrol-1-yl)methanone], the half-life at 1 μM in series [1] turned out to be 32 min; in series [2], 35 min. Also, the values for the IC50 at human TRPM8 [3] (setting [5]), on human TRPM8 [3] (setting [6]) and at human TRPM8 [4] were 0.651 µM, 0.745 µM and 657 nM, respectively.

In the case of `O=C(c1ccccn1)c1sc(-c2cccc(F)c2)nc1O` [Example 22, [2-(3-fluorophenyl)-4-hydroxy-1,3-thiazol-5-yl](pyridin-2-yl)methanone], the half-life at 1 μM amounted to 52 min in series [1] and 55 min in series [2]. In addition, the results for the IC50 on human TRPM8 [3] (setting [5]), at human TRPM8 [3] (setting [6]) and against human TRPM8 [4] were 0.523 µM, 0.54 µM and 478 nM, respectively.

Turning to `O=C(c1cccnc1)c1sc(-c2cccc(F)c2)nc1O` [Example 23, [2-(3-fluorophenyl)-4-hydroxy-1,3-thiazol-5-yl](pyridin-3-yl)methanone], the half-life at 1 μM in series [1] worked out at 52 min; in series [2], 51 min. Moreover, the results for the IC50 at human TRPM8 [3] (setting [5]), at human TRPM8 [3] (setting [6]) and on human TRPM8 [4] were 0.621 µM, 0.695 µM and 578 nM, respectively.

On to `O=C(c1ccncc1)c1sc(-c2cccc(F)c2)nc1O` [Example 24, [2-(3-fluorophenyl)-4-hydroxy-1,3-thiazol-5-yl](pyridin-4-yl)methanone], for which the half-life at 1 μM in series [1] was 40 min; in series [2], 48 min. Further, the half-inhibitory concentration (IC50) on human TRPM8 [3] (setting [5]) was determined as 0.601 µM; at human TRPM8 [3] (setting [6]), 0.624 µM; against human TRPM8 [4], 525 nM.

`O=C(c1sc(-c2cccc(F)c2)nc1O)n1ccnc1` [Example 25, [2-(3-fluorophenyl)-4-hydroxy-1,3-thiazol-5-yl](1H-imidazol-1-yl)methanone]: the half-life at 1 μM was 45 min in series [1] and 40 min in series [2]. In addition, the IC50 at human TRPM8 [3] (setting [5]) came to 1.25 µM; at human TRPM8 [3] (setting [6]) it was 1.25 µM; at human TRPM8 [4], 972 nM.

On to `O=C(c1sc(-c2cccc(F)c2)nc1O)n1cccn1` [Example 26, [2-(3-fluorophenyl)-4-hydroxy-1,3-thiazol-5-yl](1H-pyrazol-1-yl)methanone], for which the half-life at 1 μM in series [1] was determined as 89 min; in series [2] it was 86 min. Also, the IC50 at human TRPM8 [3] (setting [5]) amounted to 1.65 µM; at human TRPM8 [3] (setting [6]) it was 1.32 µM; on human TRPM8 [4], 1320 nM.

`O=C(c1sc(-c2cccc(F)c2)nc1O)N1CCCCCO1` [Example 27, [2-(3-fluorophenyl)-4-hydroxy-1,3-thiazol-5-yl](1,2-oxazepan-2-yl)methanone]: the half-life at 1 μM in series [1] is 75 min; in series [2] it was 63 min. Also, the IC50 on human TRPM8 [3] (setting [5]) worked out at 0.121 µM; on human TRPM8 [3] (setting [6]) it was 0.143 µM; at human TRPM8 [4] it was 46 nM.

For `O=C(c1sc(-c2cccc(F)c2)nc1O)N1CC2(CC2)CO1` [Example 28, [2-(3-fluorophenyl)-4-hydroxy-1,3-thiazol-5-yl](5-oxa-6-azaspiro[2.4]heptan-6-yl) methanone], the half-life at 1 μM amounted to 73 min in series [1] and 61 min in series [2]. The IC50 on human TRPM8 [3] (setting [5]) was 0.086 µM; at human TRPM8 [3] (setting [6]) it was 0.143 µM; at human TRPM8 [4], 54 nM.

Turning to `CC1CCN(C(=O)c2sc(-c3cccc(F)c3)nc2O)O1` (centres unmarked) [Example 29, [2-(3-fluorophenyl)-4-hydroxy-1,3-thiazol-5-yl](5-methyl-1,2-oxazolidin-2-yl) methanone], the half-life at 1 μM in series [1] amounted to 91 min; in series [2], 78 min. Also, the IC50 on human TRPM8 [3] (setting [5]) was 0.091 µM; at human TRPM8 [3] (setting [6]), 0.111 µM; on human TRPM8 [4], 31 nM.

`O=C(c1sc(-c2cccc(F)c2)nc1O)N1CC2CCCC2O1` (centres unmarked) [Example 30, [2-(3-fluorophenyl)-4-hydroxy-1,3-thiazol-5-yl](hexahydro-2H-cyclopenta[d][1,2]oxazol-2-yl)methanone]: the results for the half-life at 1 μM in series [1] and in series [2] were 82 min and 85 min, respectively. The IC50 stood at 0.084 µM on human TRPM8 [3] (setting [5]), 0.087 µM at human TRPM8 [3] (setting [6]) and 69 nM against human TRPM8 [4].

With `O=C(c1sc(-c2cccc(F)c2)nc1O)n1ccnn1` [Example 31, [2-(3-fluorophenyl)-4-hydroxy-1,3-thiazol-5-yl](1H-1,2,3-triazol-1-yl)methanone], the half-life at 1 μM is 85 min in series [1] and 67 min in series [2]. In addition, the IC50 was 0.94 µM on human TRPM8 [3] (setting [5]), 0.082 µM at human TRPM8 [3] (setting [6]) and 50 nM against human TRPM8 [4].

In the case of `Cn1nnnc1C(=O)c1sc(-c2cccc(F)c2)nc1O` [Example 32, [2-(3-fluorophenyl)-4-hydroxy-1,3-thiazol-5-yl](1-methyl-1H-tetrazol-5-yl)methanone], the half-life at 1 μM came out at 81 min in series [1] and 69 min in series [2]. In addition, the figures for the IC50 at human TRPM8 [3] (setting [5]), at human TRPM8 [3] (setting [6]) and against human TRPM8 [4] were 0.098 µM, 0.101 µM and 63 nM, respectively.

As usually defined, the IC50 is the point on the concentration scale where inhibition reaches its midpoint.
